The results in this text go back to ChEMBL document CHEMBL1800021, “Antineoplastic activity of the thiazolo[5,4-b]quinoline derivative D3CLP in K-562 cells is mediated through effector caspases activation” (Eur J Med Chem, 2011).

pIC50: −log10 of the molar value. Calls of active or inactive are those of the source. The rule behind the calls is not given here.

For assay [1], the system named is K562. Nature of the assay: Cytotoxicity against human K562 cells after 48 hrs by modified MTT assay. In kind it is functional, cell-based. The conditions noted are these: K562, 48 h.
Assay [2] has as its system K562. Kind of assay: Cell cycle arrest in human K562 cells assessed as accumulation at G2/M phase at 7.8 uM after 6 hrs by propidium iodide staining-based FACS analysis. In kind it is functional. (Flow cytometry measures light scatter and fluorescence of single cells or particles in a stream.)
The subject of assay [3] is K562. Nature of the assay: Induction of apoptosis in human K562 cells assessed as chromatin condensation at 7.8 uM after 12 to 24 hrs by TUNEL assay. In kind it is functional, cell-based.
For assay [4], the system named is K562. Kind of assay: Induction of apoptosis in human K562 cells assessed as DNA fragmentation at 7.8 uM after 12 to 24 hrs by TUNEL assay. The class given is functional, cell-based.
Assay [5] relates to K562. Kind of assay: Induction of apoptosis in human K562 cells assessed as increase in effector caspases activity using Ac-DEVD-AMC as substrate after 3 to 24 hrs by fluorimetry. The class given is functional, cell-based.
Assay [6] has as its system K562. Kind of assay: Induction of apoptosis in human K562 cells assessed as subdiploid peak at 7.8 uM after 12 to 24 hrs by propidium iodide staining-based FACS analysis. The class given is functional, cell-based.
The nature of assay [7]: Cytotoxicity against human PMBC after 48 hrs by modified MTT assay. (In general: Tetrazolium assays rely on reduction of a dye to a coloured formazan, in cell work by metabolically active cells.)
In assay [8] the test system is K562. Nature of the assay: Induction of apoptosis in human K562 cells assessed as effector caspases activity using Ac-DEVD-AMC as substrate after 48 hrs by fluorimetry. The class given is functional, cell-based.
Assay [9] relates to K562. Kind of assay: Ratio of IC50 for human PMBC to IC50 for human K562 cells.
Assay [10] concerns K562. Nature of the assay: Induction of apoptosis in human K562 cells assessed as chromatin condensation at 0.25 uM after 24 to 48 hrs by TUNEL assay. In kind it is functional, cell-based.
For assay [11], the system named is K562. Kind of assay: Induction of cell cycle arrest in human K562 cells assessed as complete arrest at G2/M phase at 0.25 uM after 12 hrs by propidium iodide staining-based FACS analysis. In kind it is functional.
Assay [12] concerns K562. Kind of assay: Induction of apoptosis in human K562 cells assessed as appearance of apoptotic bodies at 0.25 uM after 24 to 48 hrs by TUNEL assay. In kind it is functional, cell-based.
The test system of assay [13] is K562. Nature of the assay: Induction of cell cycle arrest in human K562 cells assessed as accumulation at G2/M phase at 0.25 uM after 6 hrs by propidium iodide staining-based FACS analysis. The class given is functional.

With `CCN(CC)CCCNc1nc2c(Nc3cccc(Cl)c3)c3ccccc3nc2s1`, the negative logarithm of the IC50 (pIC50) in assay [1] was 5.11; in assay [7], 4.54. The outcome in assay [2], in assay [3], in assay [4], in assay [5] and in assay [6] was Active. In addition, the result in [8] was inactive. The “Ratio IC50” value in assay [9] is 4.

For the molecule `CC(=O)O[C@H]1C(=O)[C@@]2(C)[C@H]([C@H](OC(=O)c3ccccc3)[C@]3(O)C[C@H](OC(=O)[C@H](O)[C@@H](NC(=O)c4ccccc4)c4ccccc4)C(C)=C1C3(C)C)[C@]1(OC(C)=O)CO[C@@H]1C[C@@H]2O`, the result in [10], in [11], in assay [12] and in [13] was Active.

As usually defined, the pIC50 is −log10 of the IC50, conventionally taken in molar units.
